Data reported in patent publication US10472341B2, “Bicyclic tetrahydrothiazepine derivatives useful for the treatment of neoplastic and/or infectious diseases” (APEIRON BIOLOGICS AG, priority 2015, dated 2019).
Blank lines part the entries; values can stand above or below the molecule they belong to.

What was measured:
M21 melanoma cells = assay: M21 viability (number of living cells) with or without CD8 cells; type: cell-based, human
Method: Isolated PBMCs, NK cells or CD8 positive cells were plated in Xvivo medium at 1.5*10^5 cells per in 96 well culture plates in the presence of 0.3*10^4 tumor cells where indicated. Cytokine secretion was determined by ELISA, immune cell activation (using Beckman-Coulter Abs CD25-PC5, CD69-PC7), cell viability and numbers by flow cytometry (Beckman-Coulter FC500 or Gallios) using 7-AAD exclusion as criterion for living cells. CD8-positive immune cells were isolated from PBMCs and were incubated with and without compound example 67, either alone or in co-culture with M21 melanoma cells.

CD4 T cells = assay: CD69 expression on aCD3/aCD28 stimulated isolated human CD4 T cells (flow cytometry); type: cell-based; conditions: 24 h after TCR stimulation, read-out: Activity Class CD69 (CD4)
Summary of the method: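 Isolated CD4 and CD8 T cells plated at 80000 cells per well in Xvivo medium and stimulated with anti-CD3/28 mAbs in presence of compound. CD69 expression measured by flow cytometry 24 h after TCR stimulation.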

SMILES: CCCCNC(=O)c1ccc2c(c1)N(Cc1ccc(OC(F)(F)F)cc1)C(=O)[C@@H](N)CS2(=O)=O.Cl [Example 67, (3R)-3-amino-N-butyl-1,1,4-trioxo-5-{[4-(trifluoromethoxy)phenyl]methyl}-2,3,4,5-tetrahydro-1λ^6,5-benzothiazepine-7-carboxamide hydrochloride]
M21 Viability [Number of Living Cells] average (M21 melanoma cells; 0.03 μM, CD8 cells & M21): 13077.00 Number of Living Cells | M21 Viability [Number of Living Cells] average (M21 melanoma cells; 0.1 μM, CD8 cells & M21): 11586.67 Number of Living Cells | M21 Viability [Number of Living Cells] average (M21 melanoma cells; 0.3 μM, CD8 cells & M21): 9525.67 Number of Living Cells | M21 Viability [Number of Living Cells] average (M21 melanoma cells; 1 μM, CD8 cells & M21): 3916.67 Number of Living Cells | M21 Viability [Number of Living Cells] average (M21 melanoma cells; 3 μM, CD8 cells & M21): 3604.00 Number of Living Cells | M21 Viability [Number of Living Cells] average (M21 melanoma cells; 10 μM, CD8 cells & M21): 3448.67 Number of Living Cells | M21 Viability [Number of Living Cells] average (M21 melanoma cells; 10 μM, M21 only (no CD8 cells)): 18139 Number of Living Cells | viable tumor cells (M21 melanoma cells; immune cell cocultures with M21 tumor cells): strong reduction in viable tumor cells

EC50 (CD4 T cells): < 1580 nM
SMILES: Cl.N[C@H]1CS(=O)(=O)c2cc(F)c(C(=O)NCCCC(F)(F)F)cc2N(Cc2ccc(Cl)cc2)C1=O [Example 70, (3R)-3-amino-5-[(4-chlorophenyl)methyl]-8-fluoro-1,1,4-trioxo-N-(4,4,4-trifluoro-butyl)-2,3,4,5-tetrahydro-1λ^6,5-benzothiazepine-7-carboxamide hydrochloride]
